{"source": "patent US20200239530A1", "about": "“COMPOUNDS AND METHODS OF MODULATING PROTEIN DEGRADATION” (Vividion Therapeutics, Inc., priority 2017, published 2020)", "key": {"[1]": {"biological_target": "T1, NOC2L Nucleolar complex protein 2 homolog (Homo sapiens, UniProt Q9Y3T9)", "T1 construct": "Cells were resuspended in cold PBS on ice and sonicated with a probe sonicator to achieve lysis; endogenous in cells", "experiment": "Cysteine liganding, probe competition", "format": "binding", "procedure,_shortened": "(§1)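 Probe competition in native proteome: 5 mg/ml lysate, compound 1 hr 25° C, then desthiobiotin iodoacetamide (10 mM stock) 1 hr 25° C; acetone ppt, urea/DTT reduction, iodoacetamide alkylation, trypsin, streptavidin pull-down.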"}, "[2]": {"biological_target": "T2, UBE2O (E3-independent) E2 ubiquitin-conjugating enzyme (Homo sapiens, UniProt Q9C0C9)", "T2 construct": "Cells were resuspended in cold PBS on ice and sonicated with a probe sonicator to achieve lysis; endogenous in cells", "T2 sequence (Q9C0C9 1-1292)": "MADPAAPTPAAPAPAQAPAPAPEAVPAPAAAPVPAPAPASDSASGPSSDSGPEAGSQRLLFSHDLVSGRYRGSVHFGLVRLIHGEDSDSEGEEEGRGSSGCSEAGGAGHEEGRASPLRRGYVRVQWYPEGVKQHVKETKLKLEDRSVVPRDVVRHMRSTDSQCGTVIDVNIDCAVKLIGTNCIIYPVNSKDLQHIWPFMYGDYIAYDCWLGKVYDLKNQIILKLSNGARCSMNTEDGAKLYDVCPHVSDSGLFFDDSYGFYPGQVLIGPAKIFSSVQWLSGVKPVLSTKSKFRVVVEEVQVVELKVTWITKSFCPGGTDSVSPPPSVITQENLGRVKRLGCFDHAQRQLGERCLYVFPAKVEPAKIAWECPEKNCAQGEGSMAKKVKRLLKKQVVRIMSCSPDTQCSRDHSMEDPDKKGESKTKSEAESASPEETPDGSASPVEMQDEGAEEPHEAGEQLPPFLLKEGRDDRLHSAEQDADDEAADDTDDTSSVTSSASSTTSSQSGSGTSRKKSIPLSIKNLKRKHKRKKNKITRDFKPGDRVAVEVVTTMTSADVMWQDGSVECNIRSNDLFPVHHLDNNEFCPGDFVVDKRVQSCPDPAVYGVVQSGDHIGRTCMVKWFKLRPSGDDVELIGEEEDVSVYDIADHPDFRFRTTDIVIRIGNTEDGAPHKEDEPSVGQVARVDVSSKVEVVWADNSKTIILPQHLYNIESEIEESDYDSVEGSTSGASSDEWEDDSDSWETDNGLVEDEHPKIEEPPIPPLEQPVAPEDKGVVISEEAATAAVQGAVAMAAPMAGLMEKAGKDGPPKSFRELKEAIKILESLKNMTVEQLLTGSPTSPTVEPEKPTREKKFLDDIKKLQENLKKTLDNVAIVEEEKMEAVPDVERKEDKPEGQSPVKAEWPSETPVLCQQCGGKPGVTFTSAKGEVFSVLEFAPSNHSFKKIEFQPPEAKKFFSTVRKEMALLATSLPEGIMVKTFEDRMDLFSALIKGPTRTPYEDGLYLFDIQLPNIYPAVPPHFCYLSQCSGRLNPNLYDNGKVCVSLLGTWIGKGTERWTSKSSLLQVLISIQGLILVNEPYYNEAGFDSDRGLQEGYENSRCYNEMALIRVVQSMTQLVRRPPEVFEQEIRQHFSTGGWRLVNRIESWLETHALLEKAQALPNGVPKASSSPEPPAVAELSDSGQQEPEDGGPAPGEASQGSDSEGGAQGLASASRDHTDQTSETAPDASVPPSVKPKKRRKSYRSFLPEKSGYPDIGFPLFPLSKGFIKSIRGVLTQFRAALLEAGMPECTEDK", "experiment": "Cysteine liganding, probe competition", "format": "binding", "procedure,_shortened": "as §1"}}}
{"smiles": "COc1ccc2c(c1)CCCN2C(=O)CCl", "note": "[KB02]", "values": [{"measurement": "Liganded", "setting": "[1]; NOC2L Res# 585, uniprot Q9Y3T9", "result": "YES"}, {"measurement": "Liganded", "setting": "[2]; UBE2O Res# 370, uniprot Q9C0C9", "result": "YES"}, {"measurement": "Liganded", "setting": "[2]; UBE2O Res# 400, uniprot Q9C0C9", "result": "YES"}, {"measurement": "Liganded", "setting": "[2]; UBE2O Res# 910, uniprot Q9C0C9", "result": "YES"}, {"measurement": "Liganded", "setting": "[2]; UBE2O Res# 913, uniprot Q9C0C9", "result": "YES"}]}
{"smiles": "O=C(CCl)Nc1cc(C(F)(F)F)cc(C(F)(F)F)c1", "note": "[KBO3]", "values": [{"measurement": "100 Max", "setting": "[1]; uniprot Q9Y3T9", "result": 29.97}, {"measurement": "100 ave", "setting": "[1]; uniprot Q9Y3T9", "result": 7.195}, {"measurement": "500 Max", "setting": "[1]; uniprot Q9Y3T9", "result": 59.2}, {"measurement": "500 ave", "setting": "[1]; uniprot Q9Y3T9", "result": 56.82}, {"measurement": "Liganded", "setting": "[2]; UBE2O Res# 370, uniprot Q9C0C9", "result": "YES"}]}
